These results are taken from US8822517B2, “Arylosulfonamides for the treatment of CNS diseases” (Adamed SP. Z O.O., priority 2010, dated 2014).

The target of experiment [1] is T1, serotonine transporter (SERT) receptor (Homo sapiens, UniProt P31645).
T1 construct: expressed in transfected cells; host or cells: CHO cells
In words: Binding assay SERT (h), [3H]imipramine, CHO cells. Conditions: read-out: SERT [%]. In outline: (§1)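 Single-concentration test (1×10^−6 M). Total and non-specific binding were counted by scintillation, and their difference defines specific binding.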

The test system of another experiment is sigma σ receptor. In words: Binding assay σ (non-selective), [3H]DTG, rat cerebral cortex. The conditions noted are these: percent inhibition of control specific binding; compounds tested at 1×10^−6 M. In outline: as §1
For a further experiment, the system named is adrenergic α1 receptor. In words: Binding assay α1 (non-selective), [3H]prazosin, rat cerebral cortex. The conditions noted are these: percent inhibition of control specific binding; compounds tested at 1×10^−6 M. In outline:
as §1

A further experiment concerns the target T2, muscarinic M3 receptor (Homo sapiens, UniProt P20309).
T2 construct: expressed in transfected cells; host or cells: CHO cells
In words: Binding assay M3 (h), [3H]4-DAMP, CHO cells. The conditions noted are these: read-out: M3 [%]. In outline:
as §1

Experiment [2] concerns the target T3, serotoninergic receptor 5-HT2C (Homo sapiens, UniProt P28335).
T3 construct: expressed in transfected cells; host or cells: HEK-293 cells
T3 sequence (P28335 33-458): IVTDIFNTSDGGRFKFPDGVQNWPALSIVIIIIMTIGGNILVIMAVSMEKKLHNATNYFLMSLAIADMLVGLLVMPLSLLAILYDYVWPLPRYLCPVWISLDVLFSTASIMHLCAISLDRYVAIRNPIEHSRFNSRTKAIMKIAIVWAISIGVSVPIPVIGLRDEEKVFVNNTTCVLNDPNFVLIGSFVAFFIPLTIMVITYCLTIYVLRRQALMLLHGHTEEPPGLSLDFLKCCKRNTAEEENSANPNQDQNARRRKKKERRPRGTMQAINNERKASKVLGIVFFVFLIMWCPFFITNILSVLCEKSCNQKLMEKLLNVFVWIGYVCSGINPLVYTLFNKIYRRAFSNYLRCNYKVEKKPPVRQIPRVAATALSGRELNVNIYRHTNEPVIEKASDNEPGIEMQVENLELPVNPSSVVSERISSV
In words: Binding assay 5-HT2C (h), [3H]mesulergine, HEK-293 cells. The conditions noted are these: read-out: 5-HT2C [%]. Put shortly:
as §1

In another experiment the target is dopaminergic D3 receptor (Homo sapiens, UniProt P35462). In words: Binding assay D3 (h), [3H]methyl-spiperone, CHO cells. Further details: expressed in transfected cells; host or cells: CHO cells. The conditions noted are these: read-out: D3 [%]. In outline: as §1
Experiment [3] has as its target serotoninergic 5-HT6 receptor (Homo sapiens, UniProt P50406). In words: Binding assay 5-HT6 (h), [3H]LSD, CHO cells. More on the design: expressed in transfected cells; host or cells: CHO cells. The conditions noted are these: read-out: 5-HT6. In outline: as §1
Experiment [4] has as its target serotoninergic 5-HT7 receptor (Homo sapiens, UniProt P34969). In words: Binding assay 5-HT7 (h), [3H]LSD, CHO cells. Further details: expressed in transfected cells; host or cells: CHO cells. Conditions: read-out: 5-HT7. Put shortly: as §1
The target in a further experiment is T4, adrenergic α2C receptor (Homo sapiens, UniProt P18825).
T4 sequence (P18825 1-462): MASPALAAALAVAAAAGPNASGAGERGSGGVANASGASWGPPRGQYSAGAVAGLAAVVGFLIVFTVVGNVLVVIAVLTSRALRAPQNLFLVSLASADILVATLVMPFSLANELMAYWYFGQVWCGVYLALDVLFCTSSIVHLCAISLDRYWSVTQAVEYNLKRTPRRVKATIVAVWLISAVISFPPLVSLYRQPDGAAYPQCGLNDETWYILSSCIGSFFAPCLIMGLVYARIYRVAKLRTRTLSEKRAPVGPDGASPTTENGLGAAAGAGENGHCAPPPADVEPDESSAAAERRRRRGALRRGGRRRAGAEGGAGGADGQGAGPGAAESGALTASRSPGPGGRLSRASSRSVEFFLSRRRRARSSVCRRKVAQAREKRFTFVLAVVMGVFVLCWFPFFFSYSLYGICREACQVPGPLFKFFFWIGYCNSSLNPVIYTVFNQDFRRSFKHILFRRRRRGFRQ
In words: Binding assay α2C (h), [3H]RX 821002, CHO cells. More on the design: expressed in transfected cells; host or cells: CHO cells. The conditions noted are these: read-out: α2C [%]. In outline: as §1

The next experiment concerns the target dopaminergic D2 receptor (Homo sapiens, UniProt P14416). In words: Binding assay D2S (h), [3H]methyl-spiperone, HEK-293 cells. Further details: expressed in transfected cells; host or cells: HEK-293 cells. Conditions: read-out: D2 [%]. In outline: as §1
In experiment [5] the target is T5, serotoninergic 5-HT1A receptor (Homo sapiens, UniProt P08908).
T5 sequence (P08908 1-422): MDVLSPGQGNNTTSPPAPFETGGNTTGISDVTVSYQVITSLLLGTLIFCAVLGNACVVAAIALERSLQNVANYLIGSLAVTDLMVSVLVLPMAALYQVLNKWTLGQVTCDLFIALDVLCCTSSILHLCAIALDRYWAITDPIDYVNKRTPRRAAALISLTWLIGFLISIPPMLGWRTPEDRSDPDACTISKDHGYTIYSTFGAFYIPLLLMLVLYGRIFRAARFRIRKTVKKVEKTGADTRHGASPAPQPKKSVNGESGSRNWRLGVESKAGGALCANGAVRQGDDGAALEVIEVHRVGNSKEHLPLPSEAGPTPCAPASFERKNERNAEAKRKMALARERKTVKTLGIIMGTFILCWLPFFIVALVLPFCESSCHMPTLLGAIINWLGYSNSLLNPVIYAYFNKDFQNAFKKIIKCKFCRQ
In words: Binding assay 5-HT1A (h), [3H]8-OH-DPAT, HEK-293 cells. Conditions: read-out: 5-HT1A. More on the design: expressed in transfected cells; host or cells: HEK-293 cells. In outline:
as §1

For experiment [6], the target named is serotoninergic 5-HT2A receptor (Homo sapiens, UniProt P28223). In words: Binding assay 5-HT2A (h), [3H]ketanserin, HEK-293 cells. More on the design: expressed in transfected cells; host or cells: HEK-293 cells. The conditions noted are these: read-out: 5-HT2A. In outline: as §1
Experiment [7] deals with histaminergic H1 receptor (Homo sapiens, UniProt P35367). In words: Binding assay H1 (h), [3H]pyrilamine, HEK-293 cells. Conditions: read-out: H1 [%]. Further details: expressed in transfected cells; host or cells: HEK-293 cells. In outline: as §1
Chain of histaminergic H1 receptor (P35367 whole entry): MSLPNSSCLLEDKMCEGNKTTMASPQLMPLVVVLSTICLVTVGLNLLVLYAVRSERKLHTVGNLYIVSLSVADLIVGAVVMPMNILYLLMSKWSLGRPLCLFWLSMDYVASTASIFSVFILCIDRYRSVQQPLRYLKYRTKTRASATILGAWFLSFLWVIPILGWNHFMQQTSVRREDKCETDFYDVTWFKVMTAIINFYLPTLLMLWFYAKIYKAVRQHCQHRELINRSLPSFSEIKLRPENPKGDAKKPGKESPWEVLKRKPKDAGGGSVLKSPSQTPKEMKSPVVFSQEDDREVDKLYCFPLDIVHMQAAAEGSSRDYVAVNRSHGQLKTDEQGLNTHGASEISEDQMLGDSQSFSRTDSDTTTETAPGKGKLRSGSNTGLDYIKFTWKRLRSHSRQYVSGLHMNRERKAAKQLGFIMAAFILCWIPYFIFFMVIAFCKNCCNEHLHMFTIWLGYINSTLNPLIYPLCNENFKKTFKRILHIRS

T1 sequence (P31645 whole entry): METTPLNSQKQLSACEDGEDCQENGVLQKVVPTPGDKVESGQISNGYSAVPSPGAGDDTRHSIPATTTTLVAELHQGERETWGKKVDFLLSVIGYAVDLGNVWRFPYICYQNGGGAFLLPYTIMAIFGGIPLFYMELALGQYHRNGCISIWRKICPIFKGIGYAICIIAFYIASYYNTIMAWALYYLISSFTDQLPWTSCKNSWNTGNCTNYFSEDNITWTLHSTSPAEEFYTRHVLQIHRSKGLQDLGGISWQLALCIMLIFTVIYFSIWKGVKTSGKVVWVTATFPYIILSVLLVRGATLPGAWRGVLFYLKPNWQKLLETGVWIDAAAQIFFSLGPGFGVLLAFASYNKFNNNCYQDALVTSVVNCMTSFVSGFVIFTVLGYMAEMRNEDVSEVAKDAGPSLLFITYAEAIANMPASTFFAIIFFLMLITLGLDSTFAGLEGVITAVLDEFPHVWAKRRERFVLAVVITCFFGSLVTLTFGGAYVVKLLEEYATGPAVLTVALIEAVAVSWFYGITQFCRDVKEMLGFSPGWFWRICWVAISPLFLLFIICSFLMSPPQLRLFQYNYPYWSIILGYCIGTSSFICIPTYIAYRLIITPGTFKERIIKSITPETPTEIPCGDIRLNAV
Chain of serotoninergic 5-HT6 receptor (P50406 whole entry): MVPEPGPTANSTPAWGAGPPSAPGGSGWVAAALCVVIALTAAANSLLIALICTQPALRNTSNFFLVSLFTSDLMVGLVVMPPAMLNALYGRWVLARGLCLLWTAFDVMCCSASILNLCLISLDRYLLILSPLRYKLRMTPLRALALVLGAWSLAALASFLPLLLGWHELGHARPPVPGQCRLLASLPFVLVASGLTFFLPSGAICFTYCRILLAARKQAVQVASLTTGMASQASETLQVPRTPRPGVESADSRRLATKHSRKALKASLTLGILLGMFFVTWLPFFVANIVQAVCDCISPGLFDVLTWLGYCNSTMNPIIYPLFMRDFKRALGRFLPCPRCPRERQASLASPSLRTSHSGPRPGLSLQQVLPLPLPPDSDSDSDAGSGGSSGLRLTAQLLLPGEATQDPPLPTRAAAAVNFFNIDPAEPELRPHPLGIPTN
Chain of dopaminergic D2 receptor (P14416 1-414 isoform P14416-2): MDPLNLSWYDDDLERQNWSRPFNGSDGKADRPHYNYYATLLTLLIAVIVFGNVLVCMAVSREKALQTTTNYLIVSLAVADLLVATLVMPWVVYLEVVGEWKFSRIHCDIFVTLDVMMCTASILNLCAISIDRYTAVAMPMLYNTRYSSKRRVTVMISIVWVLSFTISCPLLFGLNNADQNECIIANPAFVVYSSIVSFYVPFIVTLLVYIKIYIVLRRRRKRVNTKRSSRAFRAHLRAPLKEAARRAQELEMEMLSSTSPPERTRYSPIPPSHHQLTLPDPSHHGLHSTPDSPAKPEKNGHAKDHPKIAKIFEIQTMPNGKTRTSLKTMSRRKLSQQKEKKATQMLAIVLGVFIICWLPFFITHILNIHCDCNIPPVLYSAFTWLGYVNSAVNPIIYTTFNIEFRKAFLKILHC
Chain of serotoninergic 5-HT7 receptor (P34969 whole entry): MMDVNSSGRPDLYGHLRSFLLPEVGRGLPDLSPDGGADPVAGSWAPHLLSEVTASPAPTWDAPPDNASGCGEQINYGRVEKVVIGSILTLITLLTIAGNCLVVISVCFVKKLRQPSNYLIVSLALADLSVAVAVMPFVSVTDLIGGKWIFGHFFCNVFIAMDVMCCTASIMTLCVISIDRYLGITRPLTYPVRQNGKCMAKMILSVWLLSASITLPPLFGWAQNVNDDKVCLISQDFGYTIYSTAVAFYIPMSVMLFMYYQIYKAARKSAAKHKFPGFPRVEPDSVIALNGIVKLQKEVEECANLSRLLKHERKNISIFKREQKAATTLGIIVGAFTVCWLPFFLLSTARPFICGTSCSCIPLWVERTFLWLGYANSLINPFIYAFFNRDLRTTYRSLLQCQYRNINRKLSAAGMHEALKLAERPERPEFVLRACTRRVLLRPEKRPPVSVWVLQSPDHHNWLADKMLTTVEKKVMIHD
Chain of serotoninergic 5-HT2A receptor (P28223 whole entry): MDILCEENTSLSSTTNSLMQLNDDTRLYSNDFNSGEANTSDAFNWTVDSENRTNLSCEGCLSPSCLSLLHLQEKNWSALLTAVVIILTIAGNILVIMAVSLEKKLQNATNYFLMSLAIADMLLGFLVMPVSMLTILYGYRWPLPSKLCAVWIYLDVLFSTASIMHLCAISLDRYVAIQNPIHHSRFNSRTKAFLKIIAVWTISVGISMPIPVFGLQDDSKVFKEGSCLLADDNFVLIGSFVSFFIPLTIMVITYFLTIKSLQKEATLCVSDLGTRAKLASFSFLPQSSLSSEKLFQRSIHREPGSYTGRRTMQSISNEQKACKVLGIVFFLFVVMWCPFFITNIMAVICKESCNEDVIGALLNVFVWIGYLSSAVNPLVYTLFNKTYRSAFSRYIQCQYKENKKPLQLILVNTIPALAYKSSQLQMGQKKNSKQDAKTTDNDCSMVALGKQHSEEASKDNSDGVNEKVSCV
T2 sequence (P20309 whole entry): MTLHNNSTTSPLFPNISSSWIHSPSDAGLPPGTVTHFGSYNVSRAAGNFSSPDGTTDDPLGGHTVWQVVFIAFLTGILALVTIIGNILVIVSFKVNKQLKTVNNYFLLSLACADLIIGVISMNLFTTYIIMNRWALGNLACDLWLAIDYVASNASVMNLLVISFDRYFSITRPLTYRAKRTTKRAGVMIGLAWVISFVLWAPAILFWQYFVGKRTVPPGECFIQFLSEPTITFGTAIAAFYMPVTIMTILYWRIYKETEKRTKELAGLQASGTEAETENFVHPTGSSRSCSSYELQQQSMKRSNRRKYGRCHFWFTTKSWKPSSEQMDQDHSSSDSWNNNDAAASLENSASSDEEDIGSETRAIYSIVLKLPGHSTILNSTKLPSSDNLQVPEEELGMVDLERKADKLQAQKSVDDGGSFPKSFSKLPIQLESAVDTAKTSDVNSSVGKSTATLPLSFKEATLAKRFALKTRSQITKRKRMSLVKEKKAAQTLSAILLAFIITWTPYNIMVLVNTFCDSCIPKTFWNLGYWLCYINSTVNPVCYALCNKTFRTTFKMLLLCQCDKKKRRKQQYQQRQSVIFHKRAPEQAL
Chain of dopaminergic D3 receptor (P35462 whole entry): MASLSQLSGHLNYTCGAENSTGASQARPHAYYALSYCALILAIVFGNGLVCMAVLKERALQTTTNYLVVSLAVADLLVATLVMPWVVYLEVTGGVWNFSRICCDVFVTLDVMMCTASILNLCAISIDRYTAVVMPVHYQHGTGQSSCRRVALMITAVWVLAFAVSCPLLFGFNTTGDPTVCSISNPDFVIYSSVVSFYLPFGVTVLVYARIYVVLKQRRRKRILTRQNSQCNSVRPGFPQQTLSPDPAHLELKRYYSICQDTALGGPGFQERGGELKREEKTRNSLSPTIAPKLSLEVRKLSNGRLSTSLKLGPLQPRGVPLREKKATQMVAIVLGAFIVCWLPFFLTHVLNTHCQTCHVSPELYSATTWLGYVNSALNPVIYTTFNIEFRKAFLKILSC

Consider `O=c1[nH]c2cccc(N3CCN(CCCNS(=O)(=O)c4cccc(Cl)c4)CC3)c2[nH]1` [Compound 174, 3-Chloro-N-[3-[4-(2-oxo-1,3-dihydrobenzimidazol-4-yl)piperazin-1-yl]propyl]benzenesulphonamide], for which the inhibition at 1 µM in experiment [1] came out at 11%; on muscarinic M3 receptor it was 15%; in experiment [2] it was 0%; at dopaminergic D3 receptor, 96%; in experiment [3], 4%; in [4], 92%. The inhibition at 1 µM on adrenergic α2C receptor is 55%; on dopaminergic D2 receptor, 91%; in experiment [5] it was 98%; in experiment [6], -24%; in [7] it was 25%. In the experiment on sigma σ receptor, the “σ [%]” value was −16%. Further, the “α1 [%]” value with adrenergic α1 receptor came to 86%.
Regarding `O=S(=O)(NCCCN1CCN(c2nsc3ccccc23)CC1)c1ccc(-c2ccccc2)cc1` [Compound 260, N-[3-[4-(1,2-Benzothiazol-3-yl)piperazin-1-yl]propyl]-4-phenylbenzenesulphonamide], the inhibition at 1 µM in experiment [1] was determined as 90%; on muscarinic M3 receptor, 11%; in experiment [2], 90%; on dopaminergic D3 receptor it was 98%; in [3], 92%; in experiment [4], 100%. The inhibition at 1 µM worked out at 99% on adrenergic α2C receptor; 99% at dopaminergic D2 receptor; 96% in [5]; 102% in experiment [6]; 95% in experiment [7]. Also, in the experiment with sigma σ receptor, the “σ [%]” value is 41%. Further, the “α1 [%]” value in the experiment with adrenergic α1 receptor was determined as 91%.
`O=S(=O)(NCCCN1CCN(c2nsc3ccccc23)CC1)c1cccc(Br)c1` [Compound 253, N-[3-[4-(1,2-Benzothiazol-3-yl)piperazin-1-yl]propyl]-3-bromobenzenesulphonamide]: the inhibition at 1 µM in [1] stood at 79%; at muscarinic M3 receptor, 24%; in experiment [2] it was 89%; at dopaminergic D3 receptor, 99%; in [3], 101%; in experiment [4], 99%. The inhibition at 1 µM at adrenergic α2C receptor came out at 102%; at dopaminergic D2 receptor it was 99%; in experiment [5], 99%; in [6], 101%; in [7], 98%. Further, the “σ [%]” value in the experiment with sigma σ receptor is reported as 64%. The “α1 [%]” value with adrenergic α1 receptor turned out to be 97%.
As for `O=c1[nH]c2cccc(N3CCN(CCCNS(=O)(=O)c4cccc(F)c4)CC3)c2[nH]1` [Compound 176, 3-Fluoro-N-[3-[4-(2-oxo-1,3-dihydrobenzimidazol-4-yl)piperazin-1-yl]propyl]benzenesulphonamide], the inhibition at 1 µM was -3% in experiment [1]; 6% at muscarinic M3 receptor; 9% in experiment [2]; 95% at dopaminergic D3 receptor; 29% in experiment [3]; 80% in experiment [4]. The inhibition at 1 µM at adrenergic α2C receptor was 44%; at dopaminergic D2 receptor, 89%; in [5], 97%; in experiment [6], 7%; in experiment [7], 8%. The “σ [%]” value with sigma σ receptor was −25%. Besides, the “α1 [%]” value with adrenergic α1 receptor is recorded as 77%.
For `O=S(=O)(NCCCN1CCN(c2nsc3ccccc23)CC1)c1cccc2scnc12` [Compound 267, N-[3-[4-(1,2-Benzothiazol-3-yl)piperazin-1-yl]propyl]-1,3-benzothiazole-4-sulphonamide], the inhibition at 1 µM in experiment [1] worked out at 91%; at muscarinic M3 receptor, 13%; in [2] it was 78%; on dopaminergic D3 receptor, 99%; in experiment [3], 95%; in experiment [4], 100%. Moreover, the inhibition at 1 µM at adrenergic α2C receptor was 99%; at dopaminergic D2 receptor, 100%; in experiment [5], 98%; in experiment [6] it was 101%; in [7] it was 92%. Also, in the experiment on sigma σ receptor, the “σ [%]” value came to 50%. Also, in the experiment with adrenergic α1 receptor, the “α1 [%]” value was determined as 97%.
Turning to `O=S(=O)(NCCN1CC=C(c2c[nH]c3ccc(F)cc23)CC1)c1cccc(F)c1` [Compound 439, 3-Fluoro-N-[2-[4-(5-fluoro-1H-indol-3-yl)-3,6-dihydro-2H-pyridin-1-yl]ethyl]benzenesulphonamide], the inhibition at 1 µM in experiment [1] stood at 93%; at muscarinic M3 receptor, 16%; in experiment [2], 41%; on dopaminergic D3 receptor it was 95%; in experiment [3] it was 92%; in experiment [4], 78%. Further, the inhibition at 1 µM worked out at 68% on adrenergic α2C receptor; 97% on dopaminergic D2 receptor; 99% in [5]; 83% in [6]; 18% in [7]. In addition, the “σ [%]” value with sigma σ receptor came out at 80%. In addition, the “α1 [%]” value in the experiment with adrenergic α1 receptor was 27%.
On to `O=S(=O)(NCCCCN1CCC(c2noc3cc(F)ccc23)CC1)c1ccc(F)c(F)c1` [Compound 295, 3,4-Difluoro-N-[4-[4-(6-fluoro-1,2-benzoxazol-3-yl)piperidin-1-yl]butyl]benzenesulphonamide], for which the inhibition at 1 µM came to 16% in [1]; 19% at muscarinic M3 receptor; 51% in experiment [2]; 98% on dopaminergic D3 receptor; 93% in experiment [3]; 99% in experiment [4]. The inhibition at 1 µM at adrenergic α2C receptor stood at 97%; on dopaminergic D2 receptor, 95%; in [5], 68%; in experiment [6], 99%; in experiment [7], 95%. Moreover, the “σ [%]” value in the experiment with sigma σ receptor amounted to 63%. Further, the “α1 [%]” value in the experiment with adrenergic α1 receptor stood at 96%.
